Experimental data published in patent publication US11020380B2, “Therapeutic compounds” (CELGENE QUANTICEL RESEARCH, INC., priority 2017, dated 2021).
Where two headings read alike, the source gives them in different places.

Tests used:
Format in all cases: binding
BRD4 = BRD4 (Homo sapiens (Human), UniProt O60885); assay: In vitro enzyme inhibition assay - BRD4 inhibition; details: BRD4 BD1
CBP [1] = biological target: CBP (Homo sapiens, UniProt Q92793); assay: In vitro CBP inhibition (AlphaScreen, biotinylated H4-tetraacetyl peptide)
Method: (§1) The CBP-inhibitory activity of the compounds described herein was determined by calculating the IC50. More specifically, CBP inhibitor activity was assayed as follows: CBP was cloned and expressed in E. coli as His-tag protein and purified by Nickel affinity and gel-filtration chromatography. […] CBP binding and inhibition is assessed by monitoring the interaction of biotinylated H4-tetraacetyl peptide (AnaSpec, H4K5/8/12/16(Ac), biotin-labeled) with the target using the AlphaScreen technology (Perkin Elmer). In a 384-well ProxiPlate CBP (50 nM final) was combined with peptide (20 nM final) in 50 mM HEPES (pH 7.3), 10 mM NaCl, 0.25 mM TCEP, 0.1% (w/v) BSA, and 0.005% (w/v) Brij-35 either in the presence of DMSO (final 0.4% DMSO) or compound dilution series in DMSO. After 20 min incubation at room temp, Alpha-streptavidin donor beads and Nickel Chelate acceptor beads were added to a final concentration of 5 μg/mL.
(§2) The ability of the compounds disclosed herein to inhibit CBP activity was quantified and the respective IC50 value determined.

CBP [2] = assay: as above; details: selectivity CBP vs BRD4
Method: as §1, §2

Chain of CBP (Homo sapiens, UniProt Q92793) (Q92793 2-2442 limits assumed): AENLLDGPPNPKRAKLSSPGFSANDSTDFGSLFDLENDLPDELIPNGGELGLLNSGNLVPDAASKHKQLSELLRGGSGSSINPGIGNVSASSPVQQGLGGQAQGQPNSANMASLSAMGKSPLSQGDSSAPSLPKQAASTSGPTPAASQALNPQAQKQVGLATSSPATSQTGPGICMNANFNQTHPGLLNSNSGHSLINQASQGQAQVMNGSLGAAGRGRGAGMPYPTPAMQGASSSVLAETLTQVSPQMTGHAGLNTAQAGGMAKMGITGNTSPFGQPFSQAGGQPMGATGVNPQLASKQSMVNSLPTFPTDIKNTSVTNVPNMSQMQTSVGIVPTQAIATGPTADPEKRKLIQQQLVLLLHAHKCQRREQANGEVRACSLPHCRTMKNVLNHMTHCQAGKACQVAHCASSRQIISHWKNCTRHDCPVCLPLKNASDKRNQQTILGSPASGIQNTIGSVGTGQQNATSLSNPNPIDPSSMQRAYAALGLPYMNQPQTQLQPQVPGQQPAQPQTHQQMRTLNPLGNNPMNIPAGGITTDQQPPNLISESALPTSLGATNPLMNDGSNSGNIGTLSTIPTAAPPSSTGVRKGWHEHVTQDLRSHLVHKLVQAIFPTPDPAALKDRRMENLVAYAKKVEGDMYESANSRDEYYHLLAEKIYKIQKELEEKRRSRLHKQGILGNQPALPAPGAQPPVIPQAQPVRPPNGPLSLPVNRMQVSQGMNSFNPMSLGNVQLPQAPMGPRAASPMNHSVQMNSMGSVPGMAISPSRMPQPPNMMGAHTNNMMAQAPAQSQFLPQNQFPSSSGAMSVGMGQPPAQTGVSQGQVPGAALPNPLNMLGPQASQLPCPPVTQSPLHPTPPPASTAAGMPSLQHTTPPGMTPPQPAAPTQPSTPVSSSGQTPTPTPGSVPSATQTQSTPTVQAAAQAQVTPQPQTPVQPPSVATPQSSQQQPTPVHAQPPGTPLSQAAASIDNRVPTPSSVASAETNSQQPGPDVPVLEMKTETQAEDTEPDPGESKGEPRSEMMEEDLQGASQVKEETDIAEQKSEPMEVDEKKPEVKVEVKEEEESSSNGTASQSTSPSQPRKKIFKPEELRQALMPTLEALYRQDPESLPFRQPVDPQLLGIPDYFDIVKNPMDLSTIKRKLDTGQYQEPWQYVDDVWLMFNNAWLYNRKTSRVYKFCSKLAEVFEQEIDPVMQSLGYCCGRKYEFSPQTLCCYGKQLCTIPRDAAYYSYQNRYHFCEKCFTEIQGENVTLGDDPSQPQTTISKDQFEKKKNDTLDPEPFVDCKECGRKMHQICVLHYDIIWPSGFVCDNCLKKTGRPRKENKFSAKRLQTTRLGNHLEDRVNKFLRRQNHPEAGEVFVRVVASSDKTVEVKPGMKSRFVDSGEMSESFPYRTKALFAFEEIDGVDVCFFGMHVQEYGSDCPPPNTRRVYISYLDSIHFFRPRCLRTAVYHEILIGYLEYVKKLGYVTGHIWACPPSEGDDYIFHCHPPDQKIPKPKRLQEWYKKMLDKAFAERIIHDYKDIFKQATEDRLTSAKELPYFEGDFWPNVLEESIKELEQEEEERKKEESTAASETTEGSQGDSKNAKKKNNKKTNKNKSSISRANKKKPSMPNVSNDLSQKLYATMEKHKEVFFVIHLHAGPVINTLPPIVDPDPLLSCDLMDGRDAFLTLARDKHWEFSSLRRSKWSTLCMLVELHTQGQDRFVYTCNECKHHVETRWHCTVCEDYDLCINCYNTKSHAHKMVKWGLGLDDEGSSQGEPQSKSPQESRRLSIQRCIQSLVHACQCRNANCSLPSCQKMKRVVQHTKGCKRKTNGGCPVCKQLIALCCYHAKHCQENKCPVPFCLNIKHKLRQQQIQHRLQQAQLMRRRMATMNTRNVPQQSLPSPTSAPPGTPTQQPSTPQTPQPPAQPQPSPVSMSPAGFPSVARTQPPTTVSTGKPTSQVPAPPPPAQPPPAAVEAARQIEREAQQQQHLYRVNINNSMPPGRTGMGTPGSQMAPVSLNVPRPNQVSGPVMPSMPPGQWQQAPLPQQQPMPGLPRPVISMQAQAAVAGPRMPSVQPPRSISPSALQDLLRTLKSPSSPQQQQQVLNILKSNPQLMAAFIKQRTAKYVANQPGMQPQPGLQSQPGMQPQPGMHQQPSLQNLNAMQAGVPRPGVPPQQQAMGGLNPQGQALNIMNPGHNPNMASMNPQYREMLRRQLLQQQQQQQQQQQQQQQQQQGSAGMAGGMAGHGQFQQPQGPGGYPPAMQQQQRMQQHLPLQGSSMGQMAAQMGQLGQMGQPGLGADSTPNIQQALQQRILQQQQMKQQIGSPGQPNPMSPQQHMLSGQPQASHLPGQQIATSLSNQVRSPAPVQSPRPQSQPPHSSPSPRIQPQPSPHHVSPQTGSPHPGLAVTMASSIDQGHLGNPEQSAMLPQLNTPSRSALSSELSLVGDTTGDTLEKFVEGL

| IC50 for CBP compared with IC50 for BRD4 (CBP [2]) | Compound | IC50 (BRD4) [nM] | IC50 (CBP [1]; read-out: CBP IC50) [nM] | IC50 (CBP [1]; read-out: CRREBBP IC50) [nM] |
| --- | --- | --- | --- | --- |
|  | 1-methyl-5-(1-(1-phenylethyl)-1H- pyrazol-4-yl)-4-(pyrrolidin-1-yl) pyridin-2(1H)-one [Example 41] | 500 to 5000 | < 500 | < 500 |
| lower IC50 for CBP than for BRD4 | Cn1cc(-c2cnn(Cc3ccccc3)c2)c(-n2cccc2)cc1=O [5-(1-benzyl-1H-pyrazol-4-yl)-1-methyl-4-(1H-pyrrol-1-yl)pyridin-2(1H)-one] |  |  |  |
|  | CCOc1cc(=O)n(C)cc1-c1cnn(C(C)c2ccccc2)c1 (stereo not shown) [Example 39, 4-ethoxy-1-methyl-5-(1-(1-phenylethyl)-1H-pyrazol-4-yl) pyridin-2(1H)-one] |  | < 500 |  |
|  | CNC(=O)[C@@H]1CCN(c2cc(=O)n(C)cc2-c2cnn(Cc3ccccc3)c2)C1 [Example 88] |  | < 500 |  |
|  | CN(C)CCCOc1ccc(-c2cc(=O)n(C)cc2-c2cnn(-c3cccc(Cl)c3C#N)c2)cn1 [Example 356, 2-chloro-6-(4-(6-(3-(dimethylamino)propoxy)-1′-methyl-6′-oxo-1′,6′-dihydro-[3,4′-bipyridin]-3′-yl)-1H-pyrazol-1-yl)benzonitrile] |  | < 500 |  |
